Test results reported in patent US20170114049A1, “2,5-DISUBSTITUTED CYCLOPENTANE CARBOXYLIC ACIDS FOR THE TREATMENT OF RESPIRATORY TRACT DISEASES” (BAYER PHARMA AKTIENGESELLSCHAFT, priority 2014, published 2017).

Legend:
Type in all cases: biochemical
MMP-9 = biological target: T1, MMP-9 (Homo sapiens, UniProt P14780); test: In vitro MMP-9 inhibition test
T1 construct: purchased R&D Systems 911-MP

MMP-10 = biological target: T2, MMP-10 (Homo sapiens, UniProt P09238); test: In vitro MMP-10 inhibition test
T2 construct: purchased R&D Systems 910-MP
T2 sequence (P09238 99-476): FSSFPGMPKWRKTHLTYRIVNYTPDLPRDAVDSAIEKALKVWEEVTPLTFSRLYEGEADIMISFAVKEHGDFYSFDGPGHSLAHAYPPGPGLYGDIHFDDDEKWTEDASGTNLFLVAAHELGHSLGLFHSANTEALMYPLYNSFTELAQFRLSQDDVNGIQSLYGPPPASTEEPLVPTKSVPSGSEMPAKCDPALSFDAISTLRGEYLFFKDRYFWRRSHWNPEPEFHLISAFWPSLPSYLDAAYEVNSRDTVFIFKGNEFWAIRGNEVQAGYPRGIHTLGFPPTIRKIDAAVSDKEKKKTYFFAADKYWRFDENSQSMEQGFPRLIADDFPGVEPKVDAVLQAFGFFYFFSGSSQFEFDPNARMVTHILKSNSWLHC
Description: (§1) The MMP-mediated amidolytic cleavage of a suitable peptide substrate leads to an increase in fluorescent light here too. The signal intensity of the fluorescent light is directly proportional to the enzyme activity. The active concentration of a test compound at which half the enzyme is inhibited (50% signal intensity of the fluorescent light) is reported as the […].
(§2) Recombinant MMP-10 (from R&D Systems, 910-MP) is chemically activated in accordance with the manufacturer's instructions using APMA. 1 μl of the test compound to be analysed (as a solution in DMSO, suitable concentrations, for example, 1 nM to 30 μM) is pipetted into 24 μl of activated enzyme (final concentration, for example, 2 nM) in reaction buffer (50 mM Tris/HCl pH 7.5, 10 mM CaCl2, 150 mM NaCl, 0.05% Brij®-35) in a white 384-hole microtiter plate (MTP). The enzymatic reaction is started by adding the intramolecularly quenched Mca-Arg-Pro-Lys-Pro-Val-Glu-Nval-Trp-Arg-Lys(Dnp)-NH2 substrate (final concentration, for example, 10 μM; R&D Systems, ES-002), so as to result in a total test volume of 50 μl. The course of the MMP-10 reaction is measured by measuring the fluorescence intensity (excitation 320 nm, emission 410 nm) over a suitable period of time (for example over 120 min at a temperature of 32° C.).

MMP-14 = biological target: T3, MMP-14 (Homo sapiens, UniProt P50281); test: In vitro MMP-14 inhibition test
T3 construct: purchased R&D Systems 918-MP
Description: as §1
Recombinant MMP-14 (from R&D Systems, 918-MP) is enzymatically activated in accordance with the manufacturer's instructions using recombinant furin (from R&D Systems, 1503-SE). 1 μl of the test compound to be analysed (as a solution in DMSO, suitable concentrations e.g. 1 nM to 30 μM) is pipetted into 24 μl of activated enzyme (final concentration e.g. 0.5 nM) in reaction buffer (50 mM Tris/HCl pH 7.5, 10 mM CaCl2, 150 mM NaCl, 0.05% Brij®-35) in a white 384-hole microtiter plate (MTP). The enzymatic reaction is started by adding the intramolecularly quenched Mca-Lys-Pro-Leu-Gly-Leu-Dpa(Dnp)-Ala-Arg-NH2 substrate (final concentration, for example, 5 μM; R&D Systems, ES-010), so as to result in a total test volume of 50 μl. The course of the MMP-14 reaction is measured by measuring the fluorescence intensity (excitation 320 nm, emission 410 nm) over a suitable period of time (for example over 120 min at a temperature of 32° C.).

MMP-7 = biological target: T4, MMP-7 (Homo sapiens, UniProt P09237); test: In vitro MMP-7 inhibition test
T4 construct: purchased R&D Systems 907-MP
T4 sequence (P09237 95-267): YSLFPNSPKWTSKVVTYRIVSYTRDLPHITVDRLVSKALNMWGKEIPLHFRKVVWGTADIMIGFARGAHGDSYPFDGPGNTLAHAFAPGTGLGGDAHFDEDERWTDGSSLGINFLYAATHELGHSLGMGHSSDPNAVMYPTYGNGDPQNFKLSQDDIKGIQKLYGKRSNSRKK
Description: as §1
as §2, with “Recombinant MMP-7” for “Recombinant MMP-10”, “Systems, 907-MP)” for “Systems, 910-MP)”, “example, 0.5” for “example, 2”, “quenched Mca-Pro-Leu-Gly-Leu-Dpa(Dnp)-Ala-Arg-NH2” for “quenched Mca-Arg-Pro-Lys-Pro-Val-Glu-Nval-Trp-Arg-Lys(Dnp)-NH2”, “Systems, ES-001),” for “Systems, ES-002),”, “the MMP-7” for “the MMP-10”

mouse MMP-12 = biological target: T5, mouse MMP-12 (Mus musculus, UniProt P34960); test: In vitro mouse MMP-12 inhibition test (standard or high-sensitivity)
T5 construct: purchased R&D Systems 3467-MP
T5 sequence (P34960 110-473): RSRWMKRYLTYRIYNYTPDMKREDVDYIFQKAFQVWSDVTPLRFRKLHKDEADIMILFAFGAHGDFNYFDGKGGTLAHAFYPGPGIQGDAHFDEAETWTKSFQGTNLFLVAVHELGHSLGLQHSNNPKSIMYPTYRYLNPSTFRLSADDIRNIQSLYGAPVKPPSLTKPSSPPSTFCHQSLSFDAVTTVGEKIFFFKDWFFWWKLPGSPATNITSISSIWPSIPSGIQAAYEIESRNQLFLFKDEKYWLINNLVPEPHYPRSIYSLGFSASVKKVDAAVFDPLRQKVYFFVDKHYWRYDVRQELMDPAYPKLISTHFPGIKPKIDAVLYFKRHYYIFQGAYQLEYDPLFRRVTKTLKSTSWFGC
Description: as §1
Recombinant mouse MMP-12 (from R&D Systems, 3467-MP) is autocatalytically activated in accordance with the manufacturer's instructions. 1 μl of the test compound to be analysed (as a solution in DMSO, suitable concentrations, for example, 1 nM to 30 μM) is pipetted into 24 μl of activated enzyme (final concentration, for example, 1 nM) in reaction buffer (50 mM Tris/HCl pH 7.5, 10 mM CaCl2, 150 mM NaCl, 0.05% Brij®-35) in a white 384-hole microtiter plate (MTP). The enzymatic reaction is started by adding the intramolecularly quenched Mca-Lys-Pro-Leu-Gly-Leu-Dpa(Dnp)-Ala-Arg-NH2 substrate (final concentration, for example, 5 μM; R&D Systems, ES-010), so as to result in a total test volume of 50 μl. The course of the MMP-12 reaction is measured by measuring the fluorescence intensity (excitation 320 nm, emission 410 nm) over a suitable period of time (for example over 120 min at a temperature of 32° C.).
In this case, an enzyme concentration ten times lower is used (final concentration, for example, 0.1 nM) in order to achieve an elevated test sensitivity. The incubation period chosen for the test is correspondingly longer (for example 16 hours).

mouse MMP-3 = biological target: T6, mouse MMP-3 (Mus musculus, UniProt P28862); test: In vitro mouse MMP-3 inhibition test
T6 construct: purchased R&D Systems 548-MP
T6 sequence (P28862 100-477): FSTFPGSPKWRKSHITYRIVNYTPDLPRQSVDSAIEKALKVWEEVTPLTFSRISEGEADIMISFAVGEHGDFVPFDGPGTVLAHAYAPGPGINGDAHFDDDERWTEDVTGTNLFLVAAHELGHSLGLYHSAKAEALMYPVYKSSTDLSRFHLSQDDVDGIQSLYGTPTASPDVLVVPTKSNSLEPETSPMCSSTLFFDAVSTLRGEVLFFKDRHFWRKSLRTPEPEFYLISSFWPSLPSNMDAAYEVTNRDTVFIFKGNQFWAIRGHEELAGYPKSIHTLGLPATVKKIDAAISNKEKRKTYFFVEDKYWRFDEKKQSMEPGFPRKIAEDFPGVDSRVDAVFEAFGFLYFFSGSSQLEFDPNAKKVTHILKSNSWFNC

mouse MMP-8 = biological target: T7, mouse MMP-8 (Mus musculus, UniProt O70138); test: In vitro mouse MMP-8 inhibition test
T7 construct: purchased R&D Systems 2904-MP
T7 sequence (O70138 101-465): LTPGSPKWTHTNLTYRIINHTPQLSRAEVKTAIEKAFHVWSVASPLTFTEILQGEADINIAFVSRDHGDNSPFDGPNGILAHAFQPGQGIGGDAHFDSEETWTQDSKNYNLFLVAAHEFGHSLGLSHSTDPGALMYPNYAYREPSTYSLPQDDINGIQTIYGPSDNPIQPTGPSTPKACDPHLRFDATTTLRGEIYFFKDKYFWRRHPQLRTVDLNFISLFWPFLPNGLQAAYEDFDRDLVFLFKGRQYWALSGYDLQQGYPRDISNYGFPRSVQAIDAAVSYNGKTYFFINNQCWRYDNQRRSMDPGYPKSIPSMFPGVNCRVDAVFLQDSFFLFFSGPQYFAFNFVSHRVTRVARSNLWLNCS

[1] = biological target: T8, human macrophage elastase (HME/hMMP-12) (Homo sapiens, UniProt P39900); test: In vitro HME inhibition test in the presence of serum albumin (BSA) in the reaction buffer; conditions: presence of serum albumin (BSA) 2% (w/w)
T8 construct: 0.5 nM HME; purchased R&D Systems 917-MP
T8 sequence (P39900 106-470): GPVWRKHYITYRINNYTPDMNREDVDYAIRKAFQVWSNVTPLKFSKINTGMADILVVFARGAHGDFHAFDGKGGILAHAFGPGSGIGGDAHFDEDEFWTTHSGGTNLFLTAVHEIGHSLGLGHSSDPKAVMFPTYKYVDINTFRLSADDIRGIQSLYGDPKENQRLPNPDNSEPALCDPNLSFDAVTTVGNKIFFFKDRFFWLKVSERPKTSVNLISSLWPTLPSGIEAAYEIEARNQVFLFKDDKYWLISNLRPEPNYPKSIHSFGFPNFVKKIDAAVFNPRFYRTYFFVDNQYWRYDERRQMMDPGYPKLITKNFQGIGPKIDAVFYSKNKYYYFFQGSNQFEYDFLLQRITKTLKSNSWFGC
Description: This test corresponds to the standard HME inhibition test described above, except using a modified reaction buffer. This reaction buffer additionally contains bovine serum albumin (BSA, fatty acid-free, A6003, from Sigma-Aldrich) of final concentration 2% (w/w), which corresponds to about half the physiological serum albumin content.

T1 sequence (P14780 107-707 limits assumed): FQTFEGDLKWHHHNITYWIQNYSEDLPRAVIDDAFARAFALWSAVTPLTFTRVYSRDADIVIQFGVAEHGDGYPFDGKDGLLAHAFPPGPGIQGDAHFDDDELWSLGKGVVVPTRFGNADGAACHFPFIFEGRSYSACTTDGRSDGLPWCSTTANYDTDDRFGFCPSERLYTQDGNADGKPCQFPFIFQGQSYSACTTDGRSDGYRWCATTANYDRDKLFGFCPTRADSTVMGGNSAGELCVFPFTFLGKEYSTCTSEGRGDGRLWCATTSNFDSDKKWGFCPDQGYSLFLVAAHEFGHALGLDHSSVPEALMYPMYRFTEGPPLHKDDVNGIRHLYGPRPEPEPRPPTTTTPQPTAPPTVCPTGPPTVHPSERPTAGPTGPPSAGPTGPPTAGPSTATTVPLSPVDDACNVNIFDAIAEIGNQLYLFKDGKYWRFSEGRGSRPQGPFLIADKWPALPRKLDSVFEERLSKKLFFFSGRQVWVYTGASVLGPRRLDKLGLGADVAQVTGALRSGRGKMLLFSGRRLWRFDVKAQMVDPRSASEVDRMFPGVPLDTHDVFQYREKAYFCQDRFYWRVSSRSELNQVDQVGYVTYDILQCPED

Molecule | IC50 (MMP-9) [nM] | IC50 (MMP-10) [nM] | IC50 (MMP-14) [nM] | IC50 (MMP-7) [nM] | IC50 (mouse MMP-12) [nM] | IC50 (mouse MMP-3) [nM] | IC50 (mouse MMP-8) [nM] | IC50 [1] [nM]
O=C(O)[C@H]1[C@H](Cn2nnc3ccc(C(F)(F)F)cc3c2=O)CC[C@@H]1C(=O)c1ccc(OCC2CCOCC2)cc1 (racemic) [Example 7, (+/−)-(1RS,2SR,5RS)-2-{[4-Oxo-6-(trifluoromethyl)-1,2,3-benzotriazin-3(4H)-yl]methyl}-5-[4-(tetrahydro-2H-pyran-4-ylmethoxy)benzoyl]cyclopentanecarboxylic acid] | 120 | 11000 | 170 | 130 |  |  |  | 
Cc1ccc2nnn(C[C@@H]3CC[C@H](C(=O)c4ccc(OCCC5CCOCC5)cc4)[C@H]3C(=O)O)c(=O)c2c1 (racemic) [Example 19, (+/−)-(1RS,2SR,5RS)-2-[(6-Methyl-4-oxo-1,2,3-benzotriazin-3(4H)-yl)methyl]-5-{4-[2-(letrahydro-2H-pyran-4-yl)ethoxy]benzoyl}cyclopentanecarboxylic acid] | 960 | 58 | 2700 | 1100 | 7.6 | 3100 | 150 | 32
O=C(O)[C@@H]1[C@@H](Cn2nnc3ccccc3c2=O)CC[C@H]1C(=O)c1ccc(OCCC2CCOCC2)cc1 (single isomer, unassigned) [Example 5, (+)-(1RS,2SR,5RS)-2-[(4-Oxo-1,2,3-benzotriazin-3(4H)-yl)methyl]-5-{4-[2-(tetrahydro-2H-pyran-4-yl)ethoxy]benzoyl}cyclopentanecarboxylic acid] | 460 | 13 | 250 | 600 | 0.67 | 270 | 54 | 4.06
O=C(O)[C@@H]1[C@@H](Cn2nnc3ccc(C(F)(F)F)cc3c2=O)CC[C@H]1C(=O)c1ccc(OCCC2CCOCC2)cc1 (single isomer, unassigned) [Example 11, (+)-(1RS,2SR,5RS)-2-{[4-Oxo-6-(trifluoromethyl)-1,2,3-benzotriazin-3(4H)-yl]methyl}-5-{4-[2-(tetrahydro-2H-pyran-4-yl)ethoxy]benzoyl}cyclopentanecarboxylic acid] | 660 | 18 | 1200 | 190 | 9.4 | 620 | 34 | 39.2
O=C(O)[C@@H]1[C@@H](Cn2nnc3ccc(C(F)(F)F)cc3c2=O)CC[C@H]1C(=O)c1ccc(SCC2CCOCC2)cc1 (single isomer, unassigned) [Example 15, (+)-(1RS,2SR,5RS)-2-{[4-Oxo-6-(trifluoromethyl)-1,2,3-benzotriazin-3(4H)-yl]methyl}-5-{4-[(tetrahydro-2H-pyran-4-ylmethyl)sulphanyl]benzoyl}cyclopentanecarboxylic acid] | 150 | 9 | 150 | 80 |  |  |  | 16
Cc1ccc2nnn(C[C@H]3CC[C@@H](C(=O)c4ccc(OCCC5CCOCC5)cc4)[C@@H]3C(=O)O)c(=O)c2c1 (single isomer, unassigned) [Example 20, (+)-(1RS,2SR,5RS)-2-[(6-Methyl-4-oxo-1,2,3-benzotriazin-3(4H)-yl)methyl]-5-{4-[2-(tetrahydro-2H-pyran-4-yl)ethoxy]benzoyl}cyclopentanecarboxylic acid] | 370 | 31 | 1000 | 290 | 1.7 | 670 | 46 | 12.2
O=C(O)[C@H]1[C@H](Cn2nnc3ccccc3c2=O)CC[C@@H]1C(=O)c1ccc(OCC2CCOCC2)cc1 (stereo in doubt) [Example 1, (+/−)-(1RS,2SR,5RS)-2-[(4-Oxo-1,2,3-benzotriazin-3(4H)-yl)methyl]-5-[4-(tetrahydro-2H-pyran-4-ylmethoxy)benzoyl]cyclopentanecarboxylic acid] | 450 | 120 | 160 | 1200 | 3.3 | 570 | 40 | 6.45
O=C(O)[C@@H]1[C@@H](Cn2nnc3ccccc3c2=O)CC[C@H]1C(=O)c1ccc(OCC2CCOCC2)cc1 (stereo in doubt) [Example 2, (+)-(1RS,2SR,5RS)-2-[(4-Oxo-1,2,3-benzotriazin-3(4H)-yl)methyl]-5-[4-(tetrahydro-2H-pyran-4-ylmethoxy)benzoyl]cyclopentanecarboxylic acid] | 360 | 80 | 99 | 640 | 0.85 | 710 | 21 | 6.71
O=C(O)[C@H]1[C@H](Cn2nnc3ccc(C(F)(F)F)cc3c2=O)CC[C@@H]1C(=O)c1ccc(OCCC2CCOCC2)cc1 (stereo in doubt) [Example 10, (+/−)-(1RS ,2S R,5RS)-2-{[4-Oxo-6-(trifluoromethyl)-1,2,3-benzotriazin-3(4H)-yl]methyl}-5-{4-[2-(tetrahydro-2H-pyran-4-yl)ethoxy]benzoyl}cyclopentanecarboxylic acid] | 310 | 5100 | 600 | 96 | 2.8 | 120 | 14 | 
(+)-(1RS,2SR,5RS)-2-{[4-Oxo-6-(trifluoromethyl)-1,2,3-benzotriazin-3(4H)-yl]methyl}-5-[4-(tetra-hydro-2H-pyran-4-ylmethoxy)benzoyl]cyclopentanecarboxylic acid [Example 8] | 55 | 12 | 100 | 45 |  |  |  | 2.45
